Holding throughout (format): functional
Test [1] deals with Staphylococcus aureus. Nature of the test: Antimicrobial activity against methicillin-resistant Staphylococcus aureus assessed as rate of residual activity. On the set-up: concentration or dose not given beside the values.
Test [2] has as its system Staphylococcus aureus. As to the kind of experiment: Antimicrobial activity against Staphylococcus aureus FDA209P by standard serial-dilution technique.
Test [3] has as its system Enterococcus faecium. Nature of the test: Antimicrobial activity against Enterococcus faecium NCTC 12203 by standard serial-dilution technique.
Test [4] deals with Enterococcus faecium. As to the kind of experiment: Antimicrobial activity against Enterococcus faecium NCTC 12201 by standard serial-dilution technique.
Test [5] relates to Staphylococcus aureus. As to the kind of experiment: Antimicrobial activity against methicillin-resistant Staphylococcus aureus HH1 by standard serial-dilution technique.
Test [6] relates to Staphylococcus aureus. As to the kind of experiment: Antimicrobial activity against Staphylococcus aureus Smith by standard serial-dilution technique.
For test [7], the system named is Staphylococcus aureus. Nature of the test: Antimicrobial activity against methicillin-resistant Staphylococcus aureus 92-1191 by standard serial-dilution technique.

In brackets after ≈: the same amount, converted by molar mass.

With `COC(=O)C[C@@H](NC(=O)[C@@H](NC(=O)[C@@H](/N=C1\NCC(=O)N2CC[C@@H](C)[C@H]2C(=O)N[C@@H](C(C)C)C(=O)N[C@H]1C(C)(C)C)C(C)(C)C)[C@@H](C)c1ccccc1)c1nccs1`, in the test with Staphylococcus aureus [1], the Activity was determined as 0%. Besides, the MIC with Staphylococcus aureus [2] worked out at 1 µg/mL (≈ 1.21 µM); in the test with Enterococcus faecium [3] it was 0.5 µg/mL (≈ 0.607 µM); against Enterococcus faecium [4], 1 µg/mL (≈ 1.21 µM); against Staphylococcus aureus [5], 1 µg/mL (≈ 1.21 µM); against Staphylococcus aureus [6], 1 µg/mL (≈ 1.21 µM); against Staphylococcus aureus [7] it was 2 µg/mL (≈ 2.43 µM).

What is called MIC is the lowest concentration found to suppress growth.

Values taken from ChEMBL document CHEMBL1255213, “Bottromycin derivatives: efficient chemical modifications of the ester moiety and evaluation of anti-MRSA and anti-VRE activities” (2010).
